Results taken from US20050282707A1, “Pyridinylisoxazoles and their use as herbicides” (Bayer CropScience GmbH, priority 2004, published 2005).

Key:
Assay type in all cases: in vivo
Sinapis arvensis = assay: Pre-emergence herbicidal action; conditions: 320 g of active ingredient or less per hectare, greenhouse, visual scoring after 3 to 4 weeks vs untreated controls
Description: (§1) Seeds of mono- and dicotyledonous weed plants are placed in sandy loam in cardboard pots and covered with soil. The compounds according to the invention, formulated as wettable powders or emulsifiable concentrates, are then applied, in the form of an aqueous suspension or emulsion, at a dosage of 320 g of active ingredient or less per hectare (converted), onto the surface of the covering earth, at an application rate of 600 to 800 l of water per ha (converted). Following treatment, the pots are placed in the greenhouse and maintained under good growth conditions for the weed plants. The visual scoring of the plant damage or emergence damage is made when the test plants have emerged, after an experimental period of 3 to 4 weeks, in comparison to untreated controls.

Setaria viridis = assay: Pre-emergence herbicidal action; conditions: 320 g of active ingredient or less per hectare, greenhouse, visual scoring after 3 to 4 weeks vs untreated controls
Description: as §1

Amaranthus retroflexus = assay: Pre-emergence herbicidal action; conditions: 320 g of active ingredient or less per hectare, greenhouse, visual scoring after 3 to 4 weeks vs untreated controls
Description: as §1

maize plants = assay: Crop plant tolerance; conditions: application rate of 320 g, plants with two to three true leaves, greenhouse, visual scoring four to five weeks after application
Description: as §1
(§2) In further greenhouse experiments, seeds of crop plants and of monocotyledonous and dicotyledonous weed plants are placed in sandy loam, covered with soil and placed in the greenhouse until the plants have developed two to three true leaves. Then they are treated with the compounds of the formula (I) according to the invention, and compared with those disclosed in the prior art, as described above in section 1. Four to five weeks after the application and after having been left to stand in the greenhouse, visual scoring is performed. In this test, for example, the compounds of Nos: 1.44, 2.39 and 3.44, at an application rate of 320 g, lead to no damage to maize and wheat plants.

wheat plants = assay: Crop plant tolerance; conditions: application rate of 320 g, plants with two to three true leaves, greenhouse, visual scoring four to five weeks after application
Description: as §1, §2

SMILES	activity against Sinapis arvensis (Sinapis arvensis)	activity against Setaria viridis (Setaria viridis)	activity against Amaranthus retroflexus (Amaranthus retroflexus)	damage to maize plants (maize plants)	damage to wheat plants (wheat plants)
CCS(=O)(=O)c1ccc(-c2oncc2C(=O)C2CC2)c(C)n1 [2.19]	100%	100%	100%	–	–
Cc1nc(Cl)ccc1-c1oncc1C(=O)C1CC1 [2.39]	100%	100%	100%	no damage	no damage
CSc1ccc(-c2oncc2C(=O)C2CC2)c(C)n1 [2.14]	100%	100%	100%	–	–
CCS(=O)(=O)c1ccc(C(=O)c2cnoc2C2CC2)c(C)n1 [1.19]	100%	100%	100%	–	–
Cc1nc(C(F)(F)F)ccc1C(=O)C(C#N)C(=O)C1CC1 (stereo not shown) [3.44]	100%	100%	100%	no damage	no damage
Cc1nc(Cl)ccc1C(=O)c1cnoc1C1CC1 [1.39]	100%	100%	100%	–	–
